In patent US20090253794A1, “Fibroblast Activator, Collagen Production Promoter, Collagen Contraction Promoter, Hyaluronic Acid Production Promoter, ATP Production Promoter, Melanin Formation Inhibitor, and Agent for External Application to the Skin” (priority 2005, published 2009):
Marks after values point to notes of the source that are not given here.

How the values were obtained:
Format in all cases: cell-based
[1] = system: normal skin fibroblasts derived from human; test: fibroblast activating action evaluation test by the MTT reduction method; conditions: 48 hr culture, control = 100
Method: The present inventors performed a fibroblast activating action evaluation test by the MTT reduction method and using normal skin fibroblasts derived from human (see TIM Mosmann; Journal of Immunological Methods p 55-63, 1983).
Using DMEM (Gibco) containing 5% FBS (fetal bovine serum; purchased from NICHIREI CORPORATION), normal skin fibroblasts derived from human (manufactured by KURABO INDUSTRIES LTD.) were plated on a 96 well plate at a density of 2×10^4 cells/well, and cultured at 37° C., 5% CO2 for 24 hr. After removing the medium, the cells were washed with PBS(−) (NISSUI PHARMACEUTICAL CO., LTD.), the medium was changed to DMEM containing 1% FBS supplemented with each concentration of conagenin, and the cells were cultured at 37° C., 5% CO2. The blank was […] containing 1% FBS, which was free of test specimen. After culture for 48 hr, the absorbance at 550 nm was measured by MTT reduction method, based on which the MTT reduction amount was determined. The cell activation rate was shown in a percentage relative to the absorbance of additive-free cultured cell (control) as 100.

human skin fibroblasts = test: type I collagen gel contractability after glucose modification (glycated collagen); conditions: one week, negative control = 1
Method: A collagen solution (collagen was used trade name I-AC, manufactured by KOUKEN Co., Ltd.) was prepared on ice according to the explanation insert attached to the product, and the collagen was gelled in 12 wells at 37° C. A glucose-6-phosphate solution was added to the final concentration of 100 mM, and the mixture was incubated at 37° C. for 7 days to allow glycation reaction. Unreacted glucose-6-phosphate was removed, 1×10^5 cells/ml of fibroblast was sown on the collagen gel, and cultured for 5 hr using a 0.25% FBS/DMEM medium. The medium was removed, and […] or 0.25% FBS/DMEM medium containing PBS as negative control was added. The gel was detached from the dish wall, and the level of contraction of the gelled collagen was examined. As a positive control, DMEM medium containing 10% FBS was used. The medium was changed every 2 days and, one week later, the medium was removed by suction. The diameter of the collagen gel was measured, the area was calculated, and the area ratio was compared to that of the negative control as 1.

[2] = system: normal human skin fibroblasts; test: ATP production promotion (ATP Lite luminescence); conditions: for ATP amount (average ATP amount without addition of sample is 100): 48 hr, n = 4, mean ± standard deviation
Method: The evaluation was performed according to the following procedure. Normal human skin fibroblasts (manufactured by KURABO INDUSTRIES LTD.) were plated on a 96 well microplate at 2.0×10^4 cells per well. As the medium for plating, commercially available Medium 106S (manufactured by KURABO INDUSTRIES LTD.) containing 2% FBS, heparin 10 μg/ml and hydrocortisone 1 μg/ml was used. After culture for 24 hr, the medium was changed to a medium supplemented with various concentrations of conagenin, and the cells were cultured for 48 hr.
Then, the medium was removed from the 96 well microplate, and the amount of ATP synthesized in the cell was measured using a ATP measurement kit (ATP Lite, manufactured by PerkinElmer, Inc.). That is, the cells were washed with PBS(−), the cell membrane was lysed with a Lysis solution, a luminescence substrate was added, and the mixture was transferred to a black 96 well microplate (View Plate). The chemical luminescence was measured with a luminometer. The effect of the sample was evaluated using, as an index, the average ATP amount without addition of the sample as 100. For statistical processing, parametric multiple comparison (Dunnett Type) relative to control group without addition of the sample was performed, wherein a risk rate of less than 5% is indicated with *, a risk rate of less than 1% is indicated with ** and a risk rate of less than 0.1% is indicated with ***.

[3] = system: mouse B16 melanoma strain; test: melanin formation amount after L-DOPA incubation (absorbance 495 nm), cells of Example 7; conditions: FIG. 1; cells of Example 7 (0.1, 1.0, 10 mM); absorbance at 495 nm
Method: To the cells recovered in Example 7 was added 100 μl of cell suspension (PBS buffer containing Triton X-100 at 0.1% (v/v)). After thorough suspending, the suspension was stood at 4° C. for 1 hr. Thereto was added 100 μl of 10 mM L-DOPA (manufactured by Nacalai Tesque), and the mixture was incubated at 37° C. for 1 hr. Thereafter, the absorbance at 495 nm was measured by a plate reader (multiscanplus MKII, manufactured by Japan Flow Laboratory), and the melanin formation amount was measured.

[4] = system: normal human skin fibroblasts; test: collagen gel contraction promoting effect; conditions: one week, negative control = 1
Method: A collagen solution (collagen was used trade name I-AC manufactured by KOUKEN Co., Ltd.) dissolved in normal human skin fibroblasts (manufactured by KURABO INDUSTRIES LTD., 1×10^5 cells/ml) was prepared on ice according to the explanation insert attached to the product, and the collagen was gelled in 6 wells at 37° C. Thereafter, 0.25% FBS/DMEM medium containing a sample ([…]) was added. The gel was detached from the dish wall, and the level of contraction of the gelled collagen was examined. As a positive control, DMEM medium containing 10% FBS instead of 0.25% FBS was used. The medium was changed every 2 days and, one week later, the medium was removed by suction. The diameter of the collagen gel was measured, the area was calculated, and the area ratio was compared to that of the negative control as 1.

What does the source list for C[C@@H]([C@@H](C)O)[C@@H](O)C(=O)N[C@@](C)(CO)C(=O)O [conagenin, (2S)—N-[(2R,3S,4R)2,4-dihydroxy-3-methyl-pentanoyl]-2-methylserine]?
cell activation rate ([1]; 0.01 μM): 105%; cell activation rate ([1]; 0.05 μM): 120%; cell activation rate ([1]; 0.1 μM): 125%; cell activation rate ([1]; 1 μM): 111%; cell activation rate ([1]; 10 μM): 113%; cell activation rate ([1]; 40 μM): 124%; cell activation rate ([1]; 80 μM): 113%; cell activation rate ([1]; 160 μM): 113%; cell activation rate ([1]; 310 μM): 113%; collagen gel area ratio (human skin fibroblasts; 1 μM): 0.81; collagen gel area ratio (human skin fibroblasts; 100 μM): 0.64; collagen gel area ratio (human skin fibroblasts; 5 mM): 0.49; ATP amount (average ATP amount without addition of sample is 100) ([2]; 0.20 μM): 120 ± 18; ATP amount (average ATP amount without addition of sample is 100) ([2]; 0.39 μM): 146 ± 30***; ATP amount (average ATP amount without addition of sample is 100) ([2]; 0.78 μM): 128 ± 8*; ATP amount (average ATP amount without addition of sample is 100) ([2]; 1.56 μM): 133 ± 8**; ATP amount (average ATP amount without addition of sample is 100) ([2]; 3.13 μM): 150 ± 20***; ATP amount (average ATP amount without addition of sample is 100) ([2]; 6.25 μM): 155 ± 26***; ATP amount (average ATP amount without addition of sample is 100) ([2]; 12.5 μM): 160 ± 7***; ATP amount (average ATP amount without addition of sample is 100) ([2]; 25 μM): 153 ± 4***; ATP amount (average ATP amount without addition of sample is 100) ([2]; 50 μM): 168 ± 13***; ATP amount (average ATP amount without addition of sample is 100) ([2]; 100 μM): 164 ± 16***; concentration at which a statistically significant ATP production promoting action was observed ([2]; Dunnett comparison with the group without addition): not less than 0.39 μM; melanin formation amount [3]: suppresses melanin formation at a low concentration; collagen gel area ratio ([4]; 1 μM in 0.25% FBS/DMEM): 0.47; collagen gel area ratio ([4]; 100 μM in 0.25% FBS/DMEM): 0.44; collagen gel area ratio ([4]; 5 mM in 0.25% FBS/DMEM): 0.42
